Laboratory results as given in ChEMBL document CHEMBL3414475, “Design, synthesis, and structure-activity relationship of novel LSD1 inhibitors based on pyrimidine-thiourea hybrids as potent, orally active antitumor agents” (J Med Chem, 2015).
Each block holds one compound with its values, some of them ahead of it. Activity calls are given as the source filed them. No cut-off for these calls is given here.

How the values were obtained:
[1] = target: Lysine-specific histone demethylase 1A (Homo sapiens, UniProt O60341)
Description: Inhibition of recombinant LSD1 (157 to 852) (unknown origin) transfected in Escherichia coli BL21(DE) by fluorescence assay

[2] = target: T1, Amine oxidase [flavin-containing] B (Homo sapiens, UniProt P27338)
T1 sequence (P27338 whole entry): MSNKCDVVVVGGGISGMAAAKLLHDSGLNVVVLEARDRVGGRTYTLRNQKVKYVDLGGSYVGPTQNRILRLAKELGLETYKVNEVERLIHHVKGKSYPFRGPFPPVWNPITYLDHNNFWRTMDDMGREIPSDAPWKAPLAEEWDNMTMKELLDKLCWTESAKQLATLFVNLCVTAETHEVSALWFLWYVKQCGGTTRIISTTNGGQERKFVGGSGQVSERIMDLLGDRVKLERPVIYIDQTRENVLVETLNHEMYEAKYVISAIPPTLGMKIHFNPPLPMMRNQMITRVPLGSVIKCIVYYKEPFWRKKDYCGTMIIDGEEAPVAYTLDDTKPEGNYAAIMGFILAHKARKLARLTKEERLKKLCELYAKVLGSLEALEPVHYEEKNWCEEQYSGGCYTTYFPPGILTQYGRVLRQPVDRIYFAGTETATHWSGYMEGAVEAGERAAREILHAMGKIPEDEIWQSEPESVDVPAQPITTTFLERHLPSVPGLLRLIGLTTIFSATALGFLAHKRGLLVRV
Description: Inhibition of MAOB (unknown origin)

MGC-803 [3] = assay: Antimigratory activity against human MGC803 cells at >5 uM after 48 hrs by transwell assay; type: functional, cell-based
MGC-803 [4] = assay: cells; conditions: Homo sapiens, MGC-803, 72 h
Description: Cytotoxicity against human MGC803 cells after 72 hrs by MTT assay

MGC-803 [5] = assay: Antiinvasive activity against human MGC803 cells at 1.25 to 5 uM after 48 hrs by wound healing assay; type: functional, cell-based
[6] = target: T2, Amine oxidase [flavin-containing] A (Homo sapiens, UniProt P21397)
T2 sequence (P21397 whole entry): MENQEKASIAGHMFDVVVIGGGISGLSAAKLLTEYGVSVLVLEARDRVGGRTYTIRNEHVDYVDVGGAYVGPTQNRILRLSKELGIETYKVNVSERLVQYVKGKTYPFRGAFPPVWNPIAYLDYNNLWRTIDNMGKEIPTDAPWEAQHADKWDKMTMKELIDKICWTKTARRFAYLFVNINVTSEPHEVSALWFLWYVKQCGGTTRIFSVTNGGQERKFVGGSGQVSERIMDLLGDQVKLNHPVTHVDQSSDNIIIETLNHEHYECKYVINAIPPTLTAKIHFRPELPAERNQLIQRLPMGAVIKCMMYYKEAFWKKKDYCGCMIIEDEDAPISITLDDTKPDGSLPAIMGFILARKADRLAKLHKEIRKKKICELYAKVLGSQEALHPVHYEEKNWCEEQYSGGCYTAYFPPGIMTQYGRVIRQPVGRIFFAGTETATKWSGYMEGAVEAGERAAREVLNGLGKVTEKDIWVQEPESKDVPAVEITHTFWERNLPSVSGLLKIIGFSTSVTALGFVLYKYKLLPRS
Description: Inhibition of MAOA (unknown origin)

MGC-803 [7] = conditions: Homo sapiens, 1.25 to 5 uM
Description: Inhibition of epithelial-mesenchymal transition in human MGC803 cells assessed as down regulation of N-Cadherin at 1.25 to 5 uM after 48 hrs by Western blotting analysis

Mus musculus [8] = assay: Upregulation of Bax expression in nude BALB/C mouse xenografted with human MGC803 cells at 50 to 100 mg/kg, po administered for 21 days; type: functional, organism-based; conditions: MGC-803
[9] = Induction of apoptosis in human MGC803 cells assessed as upregulation of Bax expression after 48 hrs by Western blotting analysis; type: functional, cell-based; conditions: MGC-803
[10] = Antimetastatic activity in mouse B16F10 cells […] in C57BL/6 mouse assessed as lung metastatic nodule at 100 mg/kg, po administered for 14 days (reference value: 26.6 +/- 8.7); type: functional, B16-F10
[11] = Antimetastatic activity in mouse B16F10 cells […] in C57BL/6 mouse assessed as lung metastatic nodule at 50 mg/kg, po administered for 14 days (reference value: 26.6 +/- 8.7); type: functional, B16-F10
MGC-803 [12] = assay: Antiinvasive activity against human MGC803 cells at >5 uM after 48 hrs by matrigel-coated transwell assay; type: functional, cell-based
MGC-803 [13] = assay: Induction of apoptosis in human MGC803 cells assessed as crescent nuclei at 2 to 8 uM after 24 hrs by Hoechst 33258 staining-based fluorescence microscopy; type: functional, cell-based
cells [14] = conditions: Homo sapiens, GES1, 72 h
Description: Cytotoxicity against human GES-1 cells after 72 hrs by MTT assay

MGC-803 [15] = assay: animal or person; conditions: Mus musculus, MGC-803, po, 504 h, read-out: TGI
Description: Antitumor activity against human MGC803 cells xenografted in nude BALB/C mouse assessed as reduction of tumor weight at 100 mg/kg, po administered for 21 days relative to vehicle-treated control

MGC-803 [16] = assay: Induction of apoptosis in human MGC803 cells assessed as chromatin shrinkage at 2 to 8 uM after 24 hrs by Hoechst 33258 staining-based fluorescence microscopy; type: functional, cell-based
Mus musculus [17] = assay: Toxicity in nude BALB/C mouse xenografted with human MGC803 cells assessed as weight loss at 50 to 100 mg/kg, po; type: organism-based, MGC-803; design: dose 50-100 mg/kg, route oral; conditions: in vivo
MGC-803 [18] = assay: Induction of apoptosis in human MGC803 cells assessed as formation of apoptotic bodies at 2 to 8 uM after 24 hrs by Hoechst 33258 staining-based fluorescence microscopy; type: functional, cell-based
MGC-803 [19] = assay: Induction of apoptosis in human MGC803 cells assessed as formation of apoptotic bodies after 48 hrs by annexinV-FITC/propidium iodide staining-based flow cytometry; type: functional, cell-based
cells [20] = conditions: Homo sapiens, SGC-7901, 72 h
Description: Cytotoxicity against human SGC7901 cells after 72 hrs by MTT assay

Mus musculus [21] = assay: Downregulation of Bcl2 expression in nude BALB/C mouse xenografted with human MGC803 cells at 50 to 100 mg/kg, po administered for 21 days; type: functional, organism-based; conditions: MGC-803
cells [22] = conditions: Homo sapiens, HGC-27, 72 h
Description: Cytotoxicity against human HGC27 cells after 72 hrs by MTT assay

MGC-803 [23] = assay: Induction of apoptosis in human MGC803 cells assessed as down regulation of Bcl2 expression after 48 hrs by Western blotting analysis; type: functional, cell-based
MGC-803 [24] = assay: animal or person; conditions: Mus musculus, MGC-803, po, 504 h, read-out: TGI; remark: listed apart in the source
Description: Antitumor activity against human MGC803 cells xenografted in nude BALB/C mouse assessed as reduction of tumor weight at 50 mg/kg, po administered for 21 days relative to vehicle-treated control

IC50 [1]: > 125 µM
Structure (SMILES): C#CCSc1nc(Nc2ccc(Cl)cc2)c(C#N)c(-c2ccc(Br)cc2)n1

IC50 [1]: > 125 µM
Structure (SMILES): N#Cc1c(Cl)nc(SCc2cn(Cc3ccccc3Cl)nn2)nc1-c1ccc(Cl)cc1

IC50 [1]: > 125 µM
Structure (SMILES): C#CCSc1nc(Nc2ccccc2Cl)c(C#N)c(-c2ccccc2)n1

IC50 [1]: > 125 µM
Structure (SMILES): C#CCSc1nc(Nc2cccc(Cl)c2)c(C#N)c(-c2ccccc2)n1

IC50 [1]: > 125 µM
Structure (SMILES): C#CCSc1nc(Nc2ccc(OC)cc2)c(C#N)c(-c2ccccc2)n1

IC50 [1]: > 125 µM
Structure (SMILES): C#CCSc1nc(Nc2cccc(C(F)(F)F)c2)c(C#N)c(-c2ccc(Cl)cc2)n1

IC50 [1]: > 125 µM
Structure (SMILES): C#CCSc1nc(Nc2ccc([N+](=O)[O-])cc2)c(C#N)c(-c2ccccc2)n1

IC50 [1]: > 125 µM
Structure (SMILES): C#CCSc1nc(Nc2ccc(OC)cc2)c(C#N)c(-c2ccc(Cl)cc2)n1

IC50 [1]: > 125 µM
Structure (SMILES): C#CCSc1nc(Nc2ccc(C)cc2)c(C#N)c(-c2ccccc2)n1

IC50 [1]: > 125 µM
Structure (SMILES): C#CCSc1nc(Nc2cccc(C(F)(F)F)c2)c(C#N)c(-c2ccccc2)n1

IC50 [1]: > 125 µM
Structure (SMILES): C#CCSc1nc(Nc2ccc(F)cc2)c(C#N)c(-c2ccccc2)n1

IC50 [1]: > 125 µM
Structure (SMILES): C#CCSc1nc(Nc2cccc(C(F)(F)F)c2)c(C#N)c(-c2cc(OC)c(OC)c(OC)c2)n1

IC50 [1]: > 125 µM
Structure (SMILES): C#CCSc1nc(Nc2ccc(OC)cc2)c(C#N)c(-c2cc(OC)c(OC)c(OC)c2)n1

IC50 [1]: > 125 µM
Structure (SMILES): C#CCSc1nc(Nc2ccc(Cl)cc2)c(C#N)c(-c2ccccc2)n1

IC50 [1]: > 125 µM
Structure (SMILES): COc1cc(-c2nc(SCc3ccc(F)cc3)nc(NNC(N)=S)c2C#N)cc(OC)c1OC

IC50 [1]: > 125 µM
Structure (SMILES): C#CCSc1nc(Cl)c(C#N)c(-c2ccc([N+](=O)[O-])cc2)n1

IC50 [1]: > 125 µM
Structure (SMILES): C#CCSc1nc(Cl)c(C#N)c(-c2cccc(Cl)c2)n1

IC50 [2]: > 1250 µM | IC50 (MGC-803 [4]): 4.01 µM | IC50 [6]: > 1250 µM | IC50 (cells [14]): 58.9 µM | IC50 (cells [20]): 67.5 µM | IC50 (cells [22]): 8.92 µM
Structure (SMILES): C#CCSc1nc(NNC(N)=S)c(C#N)c(-c2cc(OC)c(OC)c(OC)c2)n1
Activity (MGC-803 [3]): Active | Activity (MGC-803 [5]): Active | inhibition (MGC-803 [7]): Active | Activity (Mus musculus [8]): Active | Activity [9]: Dose-dependent effect | Activity [10]: 8.4 | Activity [11]: 12.1 | Activity (MGC-803 [12]): Active | Activity (MGC-803 [13]): Active | inhibition in vivo at 100 mg/kg (MGC-803 [15]): 72.1% | Activity (MGC-803 [16]): Active | Activity (Mus musculus [17]): Non-toxic | Activity (MGC-803 [18]): Active | Activity (MGC-803 [19]): Dose-dependent effect | Activity (Mus musculus [21]): Active | Activity (MGC-803 [23]): Dose-dependent effect | inhibition in vivo at 50 mg/kg (MGC-803 [24]): 55.1%

IC50 [1]: > 125 µM
Structure (SMILES): C#CCSc1nc(NNC(=N)N)c(C#N)c(-c2ccc([N+](=O)[O-])cc2)n1
